Series [1] has as its system normal rats and SART stress rats. The series can be described thus: Analgesic effect, pain induced by Bradykinin. The format is in vivo, rats (SD-strain male). The conditions noted are these: intraperitoneal 100 mg/kg. How it is done: 5.4 Method of measuring a pain induced by Bradykinin:
Groups each comprising 4-8 SD-strain male normal rats and SART stress rats to which SART stress had been applied for 4 days were used. The tests were carried out according to the method of Deffenu et al. [Deffenu, G., Pegrassi, L., & Fumachi. B.; J. Pharm. Pharmacol.; 18, 135 (1966)] and Blane method [Blane, G. F.; J. Pharm. Pharmacol.; 19, 367 (1967)]. The effect judged was shown by ratio of the rats in which the effect was recognized according to the method of Abe, et al. [Abe, Kaneko & Takagi; Folia Pharmacol. Japon.; 67, 9-14 (1971)].

Series [2] is described as follows: Acute toxicity test (LD50, Litchfield-Wilcoxon), mice. Conditions: mouse, in vivo, ip, intraperitoneal. The method, then: (§1) Toxicity tests were carried out by intraperitoneal administration of the compound of the present invention to groups each comprising 10 ICR-strain mice and SD-strain rats. LD50 was calculated by the Litchfield-Wilcoxon method based on the number of death 72 hours after the administration.

Series [3] has as its system normal mice and SART stress mice. The series can be described thus: Analgesic effect, acetic acid writhing method. The format is in vivo. Conditions: Mus musculus, sc, 100 mg/Kg subcutaneously. How it is done:
5.2. Acetic acid writhing method: 0.1 ml./10 g of isotonic sodium chloride solution containing 0.7% acetic acid was given intraperitoneally to groups of mice each comprising 5 normal mice and 5 SART stress mice to which SART stress had been applied for 8 days. Writhing syndromes number appeared for 15 minutes after the administration was measured. The effect was evaluated by giving 100 mg/Kg of the compounds of the present invention or DPH subcutaneously and comparing the writhing syndromes number of the mice with that of control mice.

Series [4] has as its system dd-strain male mice. The series can be described thus: Inhibitory effect on Tremorine-induced tremor. The conditions noted are these: 100 mg/kg intraperitoneal; tremorine 10 mg/Kg. The format is in vivo. How it is done: 9. Inhibitory effect on Tremorine-induced tremor:
Groups of mice each comprising 10-40 dd-strain male mice were used. Effect of the compounds of the present invention on tremor caused by tremorine was examined. The compounds of the present invention or DPH was given intraperitoneally. 45 minutes thereafter, 10 mg/Kg of tremorine was given intraperitoneally for inducing the tremor.

The subject of another series is ddY-strain male mice. Nature of the series: Effect of prolongation of sleeping time (hexobarbital). Type of series: in vivo. Conditions: for change in vivo at 100 mg/kg / change in vivo at 300 mg/kg: Mus musculus, ip; for change in vivo at 100 mg/kg: 100 mg/kg intraperitoneal; for change in vivo at 300 mg/kg: 300 mg/kg intraperitoneal. The method, then: 7. Effect of prolongation of sleeping time:
Groups of mice each comprising 10 ddY-strain male mice were used. Sodium salt of hexobarbital was given intraperitoneally. Thereafter, the period of time in which righting reflex disappeared was measured. The effect was evaluated on the basis of prolongation of time of disappearance of righting reflex by the intraperitoneal administration of the compounds of the present invention as compared with control mice.

In series [5] the test system is normal mice and SART stress mice. The series can be described thus: Analgesic effect, D'Amour-Smith method. The format is in vivo, mice (ddY-strain male). Conditions: Mus musculus, ip, intraperitoneal 100 mg/kg. The method, then:
5.3. D'Amour-Smith method:
Groups each comprising 10 ddY-strain male normal mice and SART stress mice to which SART stress had been applied for 4 days were used. The root of the tail of the mouse to which black ink was applied was irradiated with infrared rays for up to 15 seconds. Time required till escape response was observed was measured. The effect was shown by the ratio of the mice in which an average value of the response time at 30, 60, 90 and 120 minutes after the administration of the compounds of the present invention or other comparative drugs was prolonged to at least 2 times as long as the time before the administration.

Another series relates to SART stress mice. The series can be described thus: Inhibitory effects on increase of heart rate and elongation of QRS-time in SART stress mice. The format is in vivo, mice (dd-strain male). The conditions noted are these: 9th day, Average ± S.D. The method, then:
(§2) SART stress animals used in the tests described below were raised according to a method of Kita, et al. [Folia Pharmacol. Japan.: 71, 195-210 (1975)].
2. Inhibitory effects on increase of heart rate and elongation of QRS-time in stress animals:
Groups of mice each comprising 11 or 12 dd-strain male mice were divided into three groups in the same manner as above and heart rate and QRS-time were determined on the 9th day after initiation of the tests.

A short description of series [6]: Acute toxicity test (LD50, Litchfield-Wilcoxon), rats. Conditions: rat, in vivo, ip, intraperitoneal. The method, then:
as §1

Series [7] deals with normal mice and SART stress mice. Nature of the series: Analgesic effect, tail pressure method (Randall-Selitto's device). Type of series: in vivo, mice (ddY-strain male). Conditions: 60 minutes; for change in vivo at 100 mg/kg: Mus musculus, ip, 1 h, intraperitoneal 100 mg/kg; for Analgesic effect: intraperitoneal 50 mg/kg. The method, then: 5.1 Tail pressure method:
Randall-Selitto's device for determining analgesic effect by pressure stimulation was used. […]. The compounds of the present invention or other comparative drugs were given thereto and analgesic effect was determined. The effect was judged by measuring pressure applied 60 minutes after the intraperitoneal administration of the compounds of the present invention. The pressure thus measured was divided by a pressure before the administration. The value thus obtained was compared with that of a control group (to which 10 ml./Kg of 0.5% sodium salt of carboxymethylcellulose or 0.5% Tween 80 was given). When the compounds of the present invention were given perorally and other comparative drugs were given, an average of the pressure at 30, 60, 90 and 120 minutes after the administration was employed for evaluating the effect.

Series [8] relates to dd-strain male mice. Nature of the series: Antiulcerogenic effect on Takagi's restraint-plus-water-immersing ulcer. Type of series: in vivo. Conditions: Mus musculus, ip; 150 mg/kg intraperitoneal. How it is done:
6.1 Antiulcerogenic effect on Takagi's restraint-plus-water-immersing ulcer: Groups each comprising 8-26 dd-strain male mice were used. The tests were carried out according to a method of Takagi, et al. [Chem. Pharm. Bull.; 12, 465 (1964)]. Sum of length of diseased parts in the glandular stomach was measured and it was compared with that of control group. The compounds of the present invention or DPH was given intraperitoneally immediately before the restraint and immersion in water.

In a further series the test system is Wistar-strain male rats. Nature of the series: Antiulcerogenic effect on Shay's ulcer (operative ulcer). The format is in vivo. The conditions noted are these: 150 mg/kg intraperitoneal, 10 times. How it is done: 6.2. Antiulcerogenic effect on Shay's ulcer (operative ulcer):
Tests were carried out by using groups of rats each comprising 5-10 Wistar-strain male rats according to Shay method [Shay Harry; Gastroenterology,; 5, 43 (1945)]. Ulcers in the anterior stomach were classified on the following basis:
2. 1-5 small ulcers (diameter of less than 3 mm)
3. 6 or more small ulcers or one big ulcer (diameter of more than 3 mm)
4. two or more big ulcers

Series [9] has as its system spontaneously hypertensive rats (SHR). The series can be described thus: Antihypertensive effect in spontaneously hypertensive rats. The format is in vivo. Conditions: 60 minutes. The method, then:
8. Antihypertensive effect: Groups of rats each comprising 6-9 spontaneously hypertensive rats (SHR) were used. The compounds of the present invention or DPH was given intraperitoneally. The rate of antihypertension 60 minutes after the administration was determined.

The next series deals with isolated duodenum. Nature of the series: Recovery of acetylcholine sensitivity of isolated duodenum of SART stress mice (Magnus method). Conditions: 6th day, Ach 10^-7 g/ml, Average ± S.E. Type of series: in vivo, mice (dd-strain male).
Description: as §2
3. Effect of recovering acetylcholine (Ach) sensitivity of isolated intestinal tract:
Groups each comprising at least 10 dd-strain male mice were used. The compounds of the present invention or other comparative drugs were given intraperitoneally once a day during the stress-causing operation. On the 6th day, Ach (10^-7 g/ml.) sensitivity of isolated duodenum was examined using the Magnus method.

Here are results for 6 molecules from patent US4281009A, “Hydantoin derivatives” (Nippon Zoki Pharmaceutical Co., Ltd., priority 1978, dated 1981).

Broadly, the LD50 is the dose at which mortality reaches 50%. Lower therefore signals greater toxicity. What is called inhibition in vivo is the relative decrease from the control value, in per cent.

SMILES strings stand for the structures.

In the case of `O=C1NC(=O)C(c2ccccc2)(c2ccc(O)cc2)N1` (stereo not shown) [Compound 7, 5-(4-Hydroxyphenyl)-5-phenylhydantoin], the Analgesic effect worked out at 66.7% in series [1] (SART stress rats), 50% in [1] (normal rats), 76.5% in [7] (SART stress mice) and 31.5% in [7] (normal mice). In addition, the LD50 at 72 h in [2] (female), in series [2] (male), in [6] (female) and in [6] (male) was more than 5000 mg/kg each time. For the same molecule, the inhibition in vivo at 100 mg/kg in series [3] (SART stress mice) was 31.3%; in series [3] (normal mice) it was 3.8%. Besides, in the series with dd-strain male mice [4], the “Inhibitory effect on Tremorine-induced tremor” value turned out to be 35%. Further, the “Effect of prolongation of sleeping time” value in the series with ddY-strain male mice (20 mg/kg intraperitoneal) worked out at 48.0%; in the series with ddY-strain male mice (50 mg/kg intraperitoneal), 101.7%. Further, the change in vivo at 100 mg/kg is 112% with ddY-strain male mice, 106% in [7] (SART stress mice) and 38.1% in series [7] (normal mice). Further, the responders at 100 mg/kg worked out at 50% in series [5] (SART stress mice) and 40% in series [5] (normal mice). In the series with SART stress mice (50 mg/kg/day), the Heart rate stood at 690 ± 56 min⁻¹. Besides, in the series with SART stress mice (50 mg/kg/day), the QRS-time was 12.6 ± 1.5 1/1000 sec.

With `O=C1NC(=O)C(c2ccc(O)cc2)(c2ccc(O)c(Cl)c2)N1` (stereo not shown) [Compound 33, 5-(3-Chloro-4-hydroxyphenyl)-5-(4-hydroxyphenyl)hydantoin], the inhibition in vivo at 150 mg/kg in the series with dd-strain male mice [8] was determined as 29.8%. For the same molecule, the median lethal dose (LD50) at 72 h in series [2] (female), in series [2] (male), in series [6] (female) and in [6] (male) was more than 5000 mg/kg each time. Moreover, the “Inhibitory effect on Tremorine-induced tremor” value with dd-strain male mice [4] is 29%. Besides, in the series with Wistar-strain male rats, the “Antiulcerogenic effect on Shay's ulcer (operative ulcer)” value amounted to 54.2%. For the same molecule, the change in vivo at 100 mg/kg with ddY-strain male mice is 24.2%; in series [7] (SART stress mice) it was 69.8%; in series [7] (normal mice), 29.5%. The change in vivo at 300 mg/kg in the series on ddY-strain male mice was determined as 32.9%. Further, the responders at 100 mg/kg was determined as 30% in series [5] (SART stress mice) and 20% in [5] (normal mice).

With `Cc1cc(C2(c3ccc(O)cc3)NC(=O)NC2=O)ccc1O` (stereo not shown) [Compound 30, 5-(4-Hydroxy-3-methylphenyl)-5-(4-hydroxyphenyl)hydantoin], the LD50 at 72 h in series [2] (female), in [2] (male), in series [6] (female) and in [6] (male) was more than 5000 mg/kg in each case. Also, the figures for the inhibition in vivo at 100 mg/kg in series [3] (SART stress mice) and in series [3] (normal mice) were 25.2% and 3.9%, respectively. The Rate of antihypertension was found to be 10.9% in [9] (150 mg/Kg intraperitoneal) and 28.6% in [9] (300 mg/Kg intraperitoneal). Further, the change in vivo at 100 mg/kg was determined as 26.6% with ddY-strain male mice, 97.5% in series [7] (SART stress mice) and 59.8% in series [7] (normal mice). This molecule also gave a change in vivo at 300 mg/kg in the series on ddY-strain male mice of 97.4%. Also, the responders at 100 mg/kg came out at 30% in series [5] (SART stress mice) and 20% in series [5] (normal mice). The molecule further registered a Heart rate in the series on SART stress mice (100 mg/kg/day) of 731 ± 71 min⁻¹. Moreover, the QRS-time in the series with SART stress mice (100 mg/kg/day) is recorded as 13.4 ± 1.1 1/1000 sec. In addition, the Analgesic effect was found to be 43.6% in [7] (SART stress mice) and 12.4% in series [7] (normal mice).

On to `O=C1NC(=O)C(c2ccccc2)(c2ccc(F)cc2)N1` (stereo not shown) [Compound 5, 5-(4-Fluorophenyl)-5-phenylhydantoin], for which the inhibition in vivo at 150 mg/kg in the series on dd-strain male mice [8] worked out at 22.8%. Further, the median lethal dose (LD50) at 72 h in [2] (female) stood at 810 mg/kg; in series [2] (male) it was 840 mg/kg; in [6] (female) it was 1100 mg/kg; in [6] (male), 1180 mg/kg. Moreover, the “Antiulcerogenic effect on Shay's ulcer (operative ulcer)” value with Wistar-strain male rats amounted to 20.7%. Also, the change in vivo at 100 mg/kg in the series on ddY-strain male mice came out at 31%; in [7] (SART stress mice), 95%; in [7] (normal mice), 19.8%. In the series with ddY-strain male mice, this molecule showed a change in vivo at 300 mg/kg of 38.1%. Also, the responders at 100 mg/kg in series [5] (SART stress mice) was 40%; in series [5] (normal mice) it was 10%.

Turning to `CN(C)CCCN1c2ccccc2Sc2ccc(Cl)cc21` [Chlorpromazine], the “Ach-induced contraction of the isolated deodedum” value in the series on isolated duodenum (0.1 mg/kg/day intraperitoneal) was determined as 45 ± 12%; with isolated duodenum (0.5 mg/kg/day intraperitoneal), 81 ± 17%.

Regarding `COC(=O)[C@H]1[C@H]2C[C@@H]3c4[nH]c5cc(OC)ccc5c4CCN3C[C@H]2C[C@@H](OC(=O)c2cc(OC)c(OC)c(OC)c2)[C@@H]1OC` [Reserpine], the “Ach-induced contraction of the isolated deodedum” value with isolated duodenum (0.1 mg/kg/day intraperitoneal) is listed as 75 ± 10%; with isolated duodenum (0.5 mg/kg/day intraperitoneal) it was 104 ± 15%.
